Test results reported in US7943651B2, “Compounds” (Glaxo Group Limited, priority 2006, dated 2011).
pEC50: −log10 of the molar value.

Test system: NFkB activity
Experiment: Glucocorticoid Mediated Transrepression of NFkB Activity
Assay type: cell-based
Details: Human A549 lung epithelial cells, NFkB dependent ELAM promoter alkaline phosphatase reporter, 3 ng/ml TNFα
From the text: Glucocorticoid Mediated Transrepression of NFkB Activity
Human A549 lung epithelial cells were engineered to contain a secreted placental alkaline phosphatase gene under the control of the distal region of the NFkB dependent ELAM promoter as previously described in Ray, K. P., Farrow, S., Daly, M., Talabot, F. and Searle, N. “Induction of the E-selectin promoter by interleukin 1 and tumour necrosis factor alpha, and inhibition by glucocorticoids” Biochemical Journal (1997) 328: 707-15.
Compounds were solvated and diluted in DMSO, and transferred directly into assay plates such that the final concentration of DMSO was 0.7%. Following the addition of cells (40K per well), plates were incubated for 1 hr prior to the addition of 3 ng/ml human recombinant TNFα. Following continued incubation for 16 hr, alkaline phosphatase activity was determined by measuring the change in optical density at 405 nm with time following the addition of 0.7 volumes of assay buffer (1 mg/ml p-nitrophenylphosphate dissolved in 1M diethanolamine, 0.28M NaCl, 0.5 mM MgCl2). Dose response curves were constructed from which EC50 values were estimated.

SMILES	pEC50
COc1ccc(F)cc1C(C)(C)CC(O)(CNc1cc(C)cc2c1cnn2-c1cccc(C(=O)N2CCC[C@@H]2C(N)=O)c1)C(F)(F)F (mixture of isomers) [Example 7, 1-{[3-(4-{[4-[5-Fluoro-2-(methyloxy)phenyl]-2-hydroxy-4-methyl-2-(trifluoromethyl)pentyl]amino}-6-methyl-1H-indazol-1-yl)phenyl]carbonyl}-D-prolinamide]	> 8.50
COc1ccc(F)cc1C(C)(C)CC(O)(CNc1cc(C)cc2c1cnn2-c1cccc(C(=O)N(C)CC(N)=O)c1)C(F)(F)F (racemic) [Example 2, N-(2-Amino-2-oxoethyl)-3-(4-{[4-[5-fluoro-2-(methyloxy)phenyl]-2-hydroxy-4-methyl-2-(trifluoromethyl)pentyl]amino}-6-methyl-1H-indazol-1-yl)-N-methylbenzamide]	> 8.50
COc1ccc(F)cc1C(C)(C)CC(O)(CNc1cc(C)cc2c1cnn2-c1cccc(C(=O)N(C)CC(N)=O)c1)C(F)(F)F (single isomer, unassigned) [Example 2-A, N-(2-amino-2-oxoethyl)-3-(4-{[4-[5-fluoro-2-(methyloxy)phenyl]-2-hydroxy-4-methyl-2-(trifluoromethyl)pentyl]amino}-6-methyl-1H-indazol-1-yl)-N-methylbenzamide]	> 8.50
COc1ccc(F)cc1C(C)(C)C[C@@](O)(CNc1cc(C)cc2c1cnn2-c1cccc(C(=O)N2CCC[C@@H]2C(N)=O)c1)C(F)(F)F (single isomer, unassigned) [Example 7-A]	> 8.50
COc1ccc(F)cc1C(C)(C)CC(O)(CNc1cc(C)cc2c1cnn2-c1cccc(C(=O)N2CCC[C@H]2C(N)=O)c1)C(F)(F)F (stereo partly drawn) [Example 6, 1-{[3-(4-{[4-[5-Fluoro-2-(methyloxy)phenyl]-2-hydroxy-4-methyl-2-(trifluoromethyl)pentyl]amino}-6-methyl-1H-indazol-1-yl)phenyl]carbonyl}-L-prolinamide]	> 8.50
Cc1cc(NCC(O)(CC(C)(C)c2cc(F)ccc2O)C(F)(F)F)c2cnn(-c3cccc(C(=O)N(C)CC(N)=O)c3)c2c1 (stereo not shown) [Example 9, N-(2-Amino-2-oxoethyl)-3-(4-{[4-(5-fluoro-2-hydroxyphenyl)-2-hydroxy-4-methyl-2-(trifluoromethyl)pentyl]amino}-6-methyl-1H-indazol-1-yl)-N-methylbenzamide]	> 8.50
Cc1cc(NCC(O)(CC(C)(C)c2cc(F)ccc2O)C(F)(F)F)c2cnn(-c3cccc(C(=O)NCC(N)=O)c3)c2c1 (stereo not shown) [Example 10, N-(2-Amino-2-oxoethyl)-3-(4-{[4-(5-fluoro-2-hydroxyphenyl)-2-hydroxy-4-methyl-2-(trifluoromethyl)pentyl]amino}-6-methyl-1H-indazol-1-yl)benzamide]	> 8.50
Cc1cc(NCC(O)(CC(C)(C)c2cc(F)ccc2O)C(F)(F)F)c2cnn(-c3cccc(C(=O)N[C@H](C)C(N)=O)c3)c2c1 (stereo partly drawn) [Example 11, N-[(1R)-2-Amino-1-methyl-2-oxoethyl]-3-(4-{[4-(5-fluoro-2-hydroxyphenyl)-2-hydroxy-4-methyl-2-(trifluoromethyl)pentyl]amino}-6-methyl-1H-indazol-1-yl)benzamide]	> 8.50
Cc1cc(NCC(O)(CC(C)(C)c2cc(F)ccc2O)C(F)(F)F)c2cnn(-c3cccc(C(=O)N4CCC[C@@H]4C(N)=O)c3)c2c1 (stereo partly drawn) [Example 12, 1-{[3-(4-{[4-(5-Fluoro-2-hydroxyphenyl)-2-hydroxy-4-methyl-2-(trifluoromethyl)pentyl]amino}-6-methyl-1H-indazol-1-yl)phenyl]carbonyl}-D-prolinamide]	> 8.50
COc1ccc(F)cc1C(C)(C)CC(O)(CNc1cc(C)cc2c1cnn2-c1cccc(C(=O)N(C)[C@@H](C)C(N)=O)c1)C(F)(F)F (stereo partly drawn) [Example 14, N-[(1S)-2-Amino-1-methyl-2-oxoethyl]-3-(4-{[4-[5-fluoro-2-(methloxy)phenyl]-2-hydroxy-4-methyl-2-(trifluoromethyl)pentyl]amino}-6-methyl-1H-indazol-1-yl)-N-methylbenzamide]	> 8.50
COc1ccc(F)cc1C(C)(C)CC(O)(CNc1cc(C)cc2c1cnn2-c1cccc(C(=O)N(C)[C@H](C)C(N)=O)c1)C(F)(F)F (stereo partly drawn) [Example 15, N-[(1R)-2-Amino-1-methyl-2-oxoethyl]-3-(4-{[4-[5-fluoro-2-(methloxy)phenyl]-2-hydroxy-4-methyl-2-(trifluoromethyl)-pentyl]amino}-6-methyl-1H-indazol-1-yl)-N-methylbenzamide]	> 8.50
Cc1cc(NC[C@](O)(CC(C)(C)c2cc(F)ccc2O)C(F)(F)F)c2cnn(-c3cccc(C(=O)N4CCC[C@@H]4C(N)=O)c3)c2c1 [Example 17, 1-{[3-(4-{[(2R)-4-(5-Fluoro-2-hydroxyphenyl)-2-hydroxy-4-methyl-2-(trifluoromethyl)pentyl]amino}-6-methyl-1H-indazol-1-yl)phenyl]carbonyl}-D-prolinamide]	> 8.50

Other lines, results leading:

pEC50	SMILES
> 8.50	COc1ccc(F)cc1C(C)(C)CC(O)(CNc1cc(C)cc2c1cnn2-c1cccc(C(=O)N[C@H](C)C(N)=O)c1)C(F)(F)F (mixture of isomers) [Example 3, N-[(1R)-2-Amino-1-methyl-2-oxoethyl]-3-(4-{[4-[5-fluoro-2-(methyloxy)phenyl]-2-hydroxy-4-methyl-2-(trifluoromethyl)pentyl]amino}-6-methyl-1H-indazol-1-yl)benzamide]
> 8.50	COc1ccc(F)cc1C(C)(C)CC(O)(CNc1cc(C)cc2c1cnn2-c1cccc(C(=O)NCC(N)=O)c1)C(F)(F)F (racemic) [Example 1, N-(2-Amino-2-oxoethyl)-3-(4-{[4-[5-fluoro-2-(methyloxy)phenyl]-2-hydroxy-4-methyl-2-(trifluoromethyl)pentyl]amino}-6-methyl-1H-indazol-1-yl)benzamide]
> 8.50	COc1ccc(F)cc1C(C)(C)CC(O)(CNc1cc(C)cc2c1cnn2-c1cccc(C(=O)NC(C)(C)C(N)=O)c1)C(F)(F)F (racemic) [Example 5, N-(2-Amino-1,1-dimethyl-2-oxoethyl)-3-(4-{[4-[5-fluoro-2-(methyloxy)phenyl]-2-hydroxy-4-methyl-2-(trifluoromethyl)pentyl]amino}-6-methyl-1H-indazol-1-yl)benzamide]
> 8.50	COc1ccc(F)cc1C(C)(C)CC(O)(CNc1cc(C)cc2c1cnn2-c1cccc(C(=O)NCC(N)=O)c1)C(F)(F)F (single isomer, unassigned) [Example 1-A, N-(2-amino-2-oxoethyl)-3-(4-{[4-[5-fluoro-2-(methyloxy)phenyl]-2-hydroxy-4-methyl-2-(trifluoromethyl)pentyl]amino}-6-methyl-1H-indazol-1-yl)benzamide]
> 8.50	COc1ccc(F)cc1C(C)(C)CC(O)(CNc1cc(C)cc2c1cnn2-c1cccc(C(=O)N[C@H](C)C(N)=O)c1)C(F)(F)F (single isomer, unassigned) [Example 3-A]
> 8.50	COc1ccc(F)cc1C(C)(C)CC(O)(CNc1cc(C)cc2c1cnn2-c1cccc(C(=O)NC(C)(C)C(N)=O)c1)C(F)(F)F (single isomer, unassigned) [Example 5-A, N-(2-amino-1,1-dimethyl-2-oxoethyl)-3-(4-{[4-[5-fluoro-2-(methyloxy)phenyl]-2-hydroxy-4-methyl-2-(trifluoromethyl)pentyl]amino}-6-methyl-1H-indazol-1-yl)benzamide]
> 8.50	COc1ccc(F)cc1C(C)(C)CC(O)(CNc1cc(C)cc2c1cnn2-c1cccc(C(=O)N[C@@H](C)C(N)=O)c1)C(F)(F)F (stereo partly drawn) [Example 4, N-[(1S)-2-Amino-1-methyl-2-oxoethyl]-3-(4-{[4-[5-fluoro-2-(methyloxy)phenyl]-2-hydroxy-4-methyl-2-(trifluoromethyl)pentyl]amino}-6-methyl-1H-indazol-1-yl)benzamide]
> 8.50	COc1ccc(F)cc1C(C)(C)CC(O)(CNc1cc(C)cc2c1cnn2-c1cccc(C(=O)N[C@@H](CO)C(N)=O)c1)C(F)(F)F (stereo partly drawn) [Example 8, N-[(1S)-2-Amino-1-(hydroxymethyl)-2-oxoethyl]-3-(4-{[4-[5-fluoro-2-(methloxy)phenyl]-2-hydroxy-4-methyl-2-(trifluoromethyl)pentyl]amino}-6-methyl-1H-indazol-1-yl)benzamide]
> 8.50	CNC(=O)CNC(=O)c1cccc(-n2ncc3c(NCC(O)(CC(C)(C)c4cc(F)ccc4OC)C(F)(F)F)cc(C)cc32)c1 (stereo not shown) [Example 13, 3-(4-{[4-[5-Fluoro-2-(methyloxy)phenyl]-2-hydroxy-4-methyl-2-(trifluoromethyl)pentyl]amino}-6-methyl-1H-indazol-1-yl)-N-[2-(methylamino)-2-oxoethyl]benzamide]
> 8.50	COc1ccc(F)cc1C(C)(C)CC(O)(CNc1cc(C)cc2c1cnn2-c1cccc(C(=O)N[C@H](CO)C(N)=O)c1)C(F)(F)F (stereo partly drawn) [Example 16, N-[(1R)-2-Amino-1-(hydroxymethyl)-2-oxoethyl]-3-(4-{[4-[5-fluoro-2-(methloxy)phenyl]-2-hydroxy-4-methyl-2-(trifluoromethyl)pentyl]amino}-6-methyl-1H-indazol-1-yl)benzamide]
